The AUC is the area under the concentration-time curve, a measure of exposure. By Cmax is commonly meant the highest concentration seen after dosing. In general, half-life refers to the time needed for the level to fall by half in the phase considered.

One series concerns the target JAK1 (Homo sapiens, UniProt P23458). Briefly: JAK kinase inhibitory activity, HTRF biochemical assay. Here is the method:
(§1) The compounds of the above embodiments were applied to the detection and screening of JAK kinase inhibitory activity.
(§2) A corresponding volume of DMSO was added to each well of a first 96-well plate. 20-30 μL of 100-200 μM stock solution of different test compounds were added to each well. The mixture was shaken and mixed for 3 min. All of the compounds were subjected to 3× serial dilution. 60-80 μL Kinase buffer was added to each well of a second 96-well plate, and 1-2 μL of the solution taken from each well of the first 96-well plate was added to the corresponding well of the second 96-well plate. The mixture was shaken and mixed for 3 min. 5 μL of compound dilution taken from each well of the second compound dilution plate was transferred to the corresponding well of a 384-well test plate. 1-2 μL TK Substrate-biotin was added to each well of the test plate. 1-2 μL of enzyme mixture was added to each well. At the same time, a blank well without enzyme was set. 1-2 μL of ATP solution was added to each well, the plate was sealed and reacted at room temperature. The reaction time was as follows: JAK1: 2 h, JAK2: 30 min, JAK3: 30 min, and TYK2: 50 min. 3-5 μL of Streptavidin-XL665 and 3-5 μL of TK Antibody-cryptate were added to each well, the plate was sealed and allowed to stand at room temperature for 30 min to complete the reaction.
(§3) The percentage of inhibition was calculated based on the following formula:
(§4) Inhibition %=[(Ratiomax−Ratiocompound)/(Ratiomax−Ratiomin)]×100%
(§5) Ratiocompound is the HTRF ratio at a given compound concentration, Ratiomin is the HTRF ratio added to the blank well, and Ratiomax is the HTRF ratio without adding the compound. GraphPad Prism 5.0 software was used to plot a sigmoid dose-inhibition rate curve with a non-linear regression model and calculate the IC50 value.
In general terms: In TR-FRET formats the signal depends on donor and acceptor labels being close together.

Another series concerns the target JAK2 (Homo sapiens, UniProt O60674). The description is as above. Here is the method:
as §1, §2, §3, §4, §5

Another series deals with Hela cells. Description: Proliferation inhibition based on Hela cells (OSM stimulation, CTG). The settings on record: Homo sapiens, read-out: IC50 (uM), proliferation inhibitory activity on Hela cells. The format is cell-based. Here is the method:
1. Cell plating: cultured cells were collected and counted for viable cells with Vi-Cell XR cell counter. The cell suspension was adjusted to an appropriate concentration with the medium and then added to a 96-well cell culture plate. 50 μL-100 μL of the cell suspension was added to each well of the 96-well cell culture plate. The cell plating density depended on the growth rate of the cells. The cells were cultured in corresponding incubators.
2. Drug Treatment and OSM Stimulation
Firstly, a series of test compound concentration (work solution-1) was prepared using DMSO with 3× gradient dilution, and then it was subjected to fold dilution with RPMI1640+10% FBS to obtain a work solution-2; Cisplatin's work solution-2 was prepared with RPMI1640+10% FBS, and then 1-10 μL solution taken from the work solution-2 was added to the prepared cell wells containing medium. After incubation, 1-10 μL of OSM medium was added to each well and continued to culture. An appropriate CTG solution was added to each well. The mixture was shaken and mixed for 1-5 min and then a luminescence signal was determined with an Envision2104 plate reader.
(§6) Cell Survival Rate Calculation
(§7) T is the luminescence reading of a drug treatment group, and C is the average luminescence reading of a solvent control group.

For a further series, the system named is BaF3 cells. Description: Proliferation inhibition based on BaF3 cells (IL-3 medium, CTG). The format is cell-based. The settings on record: Mus musculus, medium containing IL-3, read-out: IC50 (uM), proliferation inhibitory activity on BaF3 cells. Here is the method: 1. Cell plating: cultured cells were collected with RPMI1640+10% FBS (containing IL-3) medium and counted for viable cells with Vi-Cell XR cell counter. The cell suspension was adjusted to an appropriate concentration with RPMI1640+10% FBS (containing IL-3) medium and then added to a 96-well cell culture plate. A certain amount of cell suspension was added to each well of the 96-well cell culture plate. The cells were cultured in corresponding incubators.
(§8) 2. Drug treatment: a series of test compound concentration (work solution-1) was prepared using DMSO with 3× gradient dilution, and then it was subjected to fold dilution with RPMI1640+10% FBS (containing IL-3) to obtain a work solution-2; Cisplatin's work solution-2 was prepared with RPMI1640+10% FBS (containing IL-3), and then 1-10 μL solution taken from the work solution-2 was added to the prepared cell wells containing medium. The cells were cultured in the corresponding incubators. An appropriate CTG solution was added to each well.
as §6, §7

The next series relates to THP1 cells. Description: Proliferation inhibition based on THP1 cells (IL-4 stimulation, CTG). The format is cell-based. Particulars: Homo sapiens, THP-1, read-out: IC50 (uM), proliferation inhibitory activity on THP1 cells. Here is the method: 1. Cell plating: cultured cells were collected and counted for viable cells with Vi-Cell XR cell counter. The cell suspension was adjusted to an appropriate concentration with the medium and then added to a 96-well cell culture plate. 80 μL of the cell suspension was added to each well of the 96-well cell culture plate. The cell plating density depended on the growth rate of the cells. The cells were cultured in corresponding incubators.
as §8, with “treatment and IL-4 stimulation: firstly,” for “treatment:”, “FBS” for “FBS (containing IL-3)”, “FBS,” for “FBS (containing IL-3),”, “incubators. After incubation, 1-10 μL of IL-4 medium was added to each well and continued to culture.” for “incubators.”
Cell Survial Rate Calculation
as §7

The target of a further series is T1, JAK3 (Homo sapiens, UniProt P52333).
T1 sequence (P52333 1-1124): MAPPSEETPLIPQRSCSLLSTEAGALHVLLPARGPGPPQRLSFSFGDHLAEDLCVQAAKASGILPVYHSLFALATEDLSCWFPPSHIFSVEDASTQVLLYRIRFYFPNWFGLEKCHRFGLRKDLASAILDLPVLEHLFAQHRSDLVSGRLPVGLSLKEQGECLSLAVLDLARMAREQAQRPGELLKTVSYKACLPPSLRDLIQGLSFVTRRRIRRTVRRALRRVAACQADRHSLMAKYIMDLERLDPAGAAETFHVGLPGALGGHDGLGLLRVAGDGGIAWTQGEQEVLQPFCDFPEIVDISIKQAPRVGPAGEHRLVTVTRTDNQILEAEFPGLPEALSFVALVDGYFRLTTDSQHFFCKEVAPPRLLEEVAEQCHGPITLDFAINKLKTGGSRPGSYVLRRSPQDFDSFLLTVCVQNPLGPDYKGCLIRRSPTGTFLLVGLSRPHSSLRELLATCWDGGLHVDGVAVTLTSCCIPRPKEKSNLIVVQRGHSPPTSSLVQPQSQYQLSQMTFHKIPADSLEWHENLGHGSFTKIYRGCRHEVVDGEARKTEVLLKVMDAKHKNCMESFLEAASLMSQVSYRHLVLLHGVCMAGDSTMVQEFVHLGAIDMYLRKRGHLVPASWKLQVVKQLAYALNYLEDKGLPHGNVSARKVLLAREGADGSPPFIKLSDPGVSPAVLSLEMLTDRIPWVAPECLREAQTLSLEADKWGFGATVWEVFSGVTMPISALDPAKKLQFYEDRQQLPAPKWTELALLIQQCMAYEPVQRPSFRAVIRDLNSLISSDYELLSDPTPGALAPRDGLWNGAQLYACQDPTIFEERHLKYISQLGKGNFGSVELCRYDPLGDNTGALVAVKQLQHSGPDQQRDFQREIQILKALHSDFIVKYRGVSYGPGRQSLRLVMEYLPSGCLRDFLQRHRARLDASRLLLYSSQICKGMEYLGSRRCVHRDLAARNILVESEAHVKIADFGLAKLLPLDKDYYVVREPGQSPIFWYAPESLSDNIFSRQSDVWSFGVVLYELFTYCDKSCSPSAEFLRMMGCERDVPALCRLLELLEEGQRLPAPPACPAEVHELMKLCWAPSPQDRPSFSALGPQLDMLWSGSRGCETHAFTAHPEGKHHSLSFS
Description: JAK kinase inhibitory activity, HTRF biochemical assay. Here is the method: as §1, §2, §3, §4, §5

For a further series, the target named is TYK2 (Homo sapiens, UniProt P29597). The series is described as above. Here is the method:
as §1, §2, §3, §4, §5

A further series in a line: Pharmacokinetic study. The format is in vivo. The settings on record: rat, plasma; rats, oral, 1-10 mg/kg. Here is the method: For the intravenous route and the oral route, the compound was formulated in an aqueous solution containing 5% DMSO+95% hydroxypropyl-β-cyclodextrin. Test animals were administered orally at 1-10 mg/kg and intravenously at 1-5 mg/kg. Each group included 3 rats. About 0.2 mL of blood was collected by jugular vein puncture with heparin sodium anticoagulant at the following time points: 0.083 h, 0.25 h, 0.5 h, 1 h, 2 h, 4 h, 6 h, 8 h, 10 h and 24 h. Plasma was separated by centrifugation at 5000-13000 rpm for 10 min within 1 hour after collecting the blood sample, and the plasma sample was analyzed on LC-MS/MS.
The pharmacokinetic parameters were calculated using Phoenix WinNonlin 7.0 based on blood drug concentration data at different time points to provide parameters such as AUC0-t, AUC0-∞, MRT0-∞, Cmax, Tmax, and T1/2.

Another series relates to rat CIA model. Briefly: Hindfoot foot volume in rat CIA model. The format is in vivo, Lewis rats. Particulars: CIA rats, hindfoot, 10 mg/kg oral gavage once daily for 2 w.

Structures are written as SMILES. Where two headings read alike, the source gives them in different places.

Chain of JAK2 (O60674 whole entry, species assumed): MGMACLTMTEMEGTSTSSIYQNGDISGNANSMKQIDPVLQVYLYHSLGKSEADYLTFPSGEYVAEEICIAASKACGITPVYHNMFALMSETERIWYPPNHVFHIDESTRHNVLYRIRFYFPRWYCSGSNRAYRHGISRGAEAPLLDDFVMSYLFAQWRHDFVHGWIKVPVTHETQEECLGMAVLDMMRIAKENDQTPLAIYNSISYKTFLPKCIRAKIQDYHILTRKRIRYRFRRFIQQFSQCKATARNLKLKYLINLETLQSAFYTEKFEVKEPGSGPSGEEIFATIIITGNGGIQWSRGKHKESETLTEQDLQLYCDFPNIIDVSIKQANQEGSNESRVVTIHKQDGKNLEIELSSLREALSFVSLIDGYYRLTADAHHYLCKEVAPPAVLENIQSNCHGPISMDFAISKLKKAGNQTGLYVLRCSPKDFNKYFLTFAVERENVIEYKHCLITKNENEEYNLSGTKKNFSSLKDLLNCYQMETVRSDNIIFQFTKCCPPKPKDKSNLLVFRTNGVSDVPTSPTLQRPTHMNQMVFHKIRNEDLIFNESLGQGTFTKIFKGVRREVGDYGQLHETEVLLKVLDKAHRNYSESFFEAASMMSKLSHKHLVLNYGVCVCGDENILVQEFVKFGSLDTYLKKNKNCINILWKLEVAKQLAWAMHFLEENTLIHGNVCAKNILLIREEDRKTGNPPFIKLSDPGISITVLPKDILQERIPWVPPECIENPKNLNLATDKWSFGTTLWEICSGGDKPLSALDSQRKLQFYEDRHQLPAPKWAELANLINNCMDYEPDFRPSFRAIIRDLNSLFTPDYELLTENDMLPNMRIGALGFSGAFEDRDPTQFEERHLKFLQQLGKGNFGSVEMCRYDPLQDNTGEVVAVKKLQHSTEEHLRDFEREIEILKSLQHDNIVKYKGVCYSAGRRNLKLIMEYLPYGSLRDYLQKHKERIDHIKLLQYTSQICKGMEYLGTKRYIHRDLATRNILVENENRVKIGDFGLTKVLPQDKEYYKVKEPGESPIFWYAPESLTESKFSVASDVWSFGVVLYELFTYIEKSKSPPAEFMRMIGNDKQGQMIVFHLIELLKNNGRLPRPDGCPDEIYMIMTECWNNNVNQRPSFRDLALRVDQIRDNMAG
Chain of JAK1 (P23458 whole entry, species assumed): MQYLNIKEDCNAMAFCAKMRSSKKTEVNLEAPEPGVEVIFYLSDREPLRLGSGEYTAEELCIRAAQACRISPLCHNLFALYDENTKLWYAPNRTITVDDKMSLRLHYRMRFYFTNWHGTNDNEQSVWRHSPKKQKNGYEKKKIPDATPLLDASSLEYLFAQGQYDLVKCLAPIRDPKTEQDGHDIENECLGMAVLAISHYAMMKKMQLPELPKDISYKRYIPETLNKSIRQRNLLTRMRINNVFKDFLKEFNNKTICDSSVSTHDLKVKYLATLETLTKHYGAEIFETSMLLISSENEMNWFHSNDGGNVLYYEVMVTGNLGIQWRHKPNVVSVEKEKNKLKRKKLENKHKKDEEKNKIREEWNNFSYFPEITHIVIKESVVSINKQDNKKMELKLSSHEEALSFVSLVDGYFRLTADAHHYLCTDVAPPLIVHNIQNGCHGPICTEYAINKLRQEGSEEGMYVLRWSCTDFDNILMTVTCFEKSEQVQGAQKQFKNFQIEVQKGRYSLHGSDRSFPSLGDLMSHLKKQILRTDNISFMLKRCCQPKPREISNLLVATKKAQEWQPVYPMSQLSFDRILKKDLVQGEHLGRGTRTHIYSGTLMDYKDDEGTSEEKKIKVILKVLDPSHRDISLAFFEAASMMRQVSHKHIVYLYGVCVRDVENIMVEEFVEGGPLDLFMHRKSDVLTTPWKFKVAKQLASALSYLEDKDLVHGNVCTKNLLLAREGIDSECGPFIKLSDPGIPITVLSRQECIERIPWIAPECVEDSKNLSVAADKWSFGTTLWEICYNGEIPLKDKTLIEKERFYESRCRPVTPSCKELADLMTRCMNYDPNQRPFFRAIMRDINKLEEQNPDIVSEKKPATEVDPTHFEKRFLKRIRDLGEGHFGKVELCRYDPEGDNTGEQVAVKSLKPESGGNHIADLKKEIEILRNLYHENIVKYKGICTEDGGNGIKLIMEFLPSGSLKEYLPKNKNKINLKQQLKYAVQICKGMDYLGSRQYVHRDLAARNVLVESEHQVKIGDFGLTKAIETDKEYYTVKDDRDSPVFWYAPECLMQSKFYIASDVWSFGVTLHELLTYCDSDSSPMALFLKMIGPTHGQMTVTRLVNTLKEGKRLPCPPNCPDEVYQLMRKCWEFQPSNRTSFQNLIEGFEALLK
Chain of TYK2 (P29597 whole entry, species assumed): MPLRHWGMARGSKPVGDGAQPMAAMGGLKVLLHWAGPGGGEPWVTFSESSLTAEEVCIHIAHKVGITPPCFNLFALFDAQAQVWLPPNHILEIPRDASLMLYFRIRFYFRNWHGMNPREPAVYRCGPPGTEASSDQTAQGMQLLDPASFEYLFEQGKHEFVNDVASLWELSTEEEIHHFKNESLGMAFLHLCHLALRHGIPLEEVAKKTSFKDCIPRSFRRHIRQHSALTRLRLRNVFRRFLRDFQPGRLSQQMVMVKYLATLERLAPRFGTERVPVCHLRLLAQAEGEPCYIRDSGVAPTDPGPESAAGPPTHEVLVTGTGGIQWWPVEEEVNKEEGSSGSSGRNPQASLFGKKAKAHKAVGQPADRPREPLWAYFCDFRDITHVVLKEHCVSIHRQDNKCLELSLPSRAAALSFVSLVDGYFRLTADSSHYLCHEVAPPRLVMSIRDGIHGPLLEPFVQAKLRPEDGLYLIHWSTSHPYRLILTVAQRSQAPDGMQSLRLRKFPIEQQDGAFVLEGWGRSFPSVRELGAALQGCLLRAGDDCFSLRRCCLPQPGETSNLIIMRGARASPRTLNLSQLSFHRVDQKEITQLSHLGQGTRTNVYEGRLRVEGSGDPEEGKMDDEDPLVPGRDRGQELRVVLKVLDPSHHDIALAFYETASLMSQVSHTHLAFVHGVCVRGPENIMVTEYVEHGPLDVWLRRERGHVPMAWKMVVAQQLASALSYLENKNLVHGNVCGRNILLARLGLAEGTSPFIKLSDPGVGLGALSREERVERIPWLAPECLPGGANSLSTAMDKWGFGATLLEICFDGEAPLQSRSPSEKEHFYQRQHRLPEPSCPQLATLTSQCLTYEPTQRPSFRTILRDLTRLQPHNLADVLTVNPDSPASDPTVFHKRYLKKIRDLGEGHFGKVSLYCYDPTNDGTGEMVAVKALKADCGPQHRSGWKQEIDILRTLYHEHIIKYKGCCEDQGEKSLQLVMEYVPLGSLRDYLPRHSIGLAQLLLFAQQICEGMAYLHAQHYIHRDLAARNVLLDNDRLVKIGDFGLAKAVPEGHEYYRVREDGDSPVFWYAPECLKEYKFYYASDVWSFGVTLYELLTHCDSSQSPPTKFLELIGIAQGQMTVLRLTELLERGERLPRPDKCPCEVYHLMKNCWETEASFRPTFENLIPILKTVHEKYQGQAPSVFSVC
Description for rat CIA model: Lewis rats (female, 10-12 weeks old) were obtained from Beijing Vital River Laboratory Animal Technology Co., Ltd. The rats were on a light and dark alternation for 12 h, and the environment was kept at a temperature of 23±2° C. and a humidity of 40-70%.
Type II collagen solution (2 mg/mL) was prepared with 0.05 M acetic acid solution to allow to be fully dissolved, and placed overnight in the dark at 4° C. During the test, 2 mg/mL type II collagen (C II) solution and 4 mg/mL complete Freund's adjuvant (CFA) solution were mixed in equal volumes under ice bath conditions to fully emulsify. On day 0, an emulsion prepared by mixing equal volumes of C II (2 mg/mL) and CFA (4 mg/mL) was injected intracutaneously into the base of the tail of experimental rats for primary immunization, and on day 7, secondary booster immunization was performed.
The therapeutic effect of the test compound was tested in a rat CIA model. The rats were randomly divided into groups with 8 animals in each group. All animals were immunized on day 0 and boosted on day 7.
Therefore, the differences in body weight and foot volume after the onset of arthritis compared with the negative group, respectively, can be used to evaluate the therapeutic effect in the rat model. The experimental data were expressed as Mean±SEM; the data between the two groups was tested by unpaired t-test and p<0.05 was considered as a significant difference.

For the molecule `O=C(Nc1nc2cccc(-c3ccc(CN4CCS(=O)(=O)CC4)s3)n2n1)[C@H]1C[C@H]1F` (relative stereo) [EXP-5, N-[5-[4-[(1,1-dioxothiomorpholine)methyl]thienyl]-[1,2,4]triazolo[1,5-a]pyridin-2-yl]-cis-2-fluoro-cyclopropanecarboxamide], the IC50 against JAK1 is 50 to 500 nM; against JAK2 it was 50 to 500 nM; in the series on Hela cells (OSM stimulation), 5 to 30 µM; in the series on BaF3 cells, less than 5 µM; in the series on THP1 cells, less than 5 µM.

As for `Cc1cc(-c2cccc3nc(NC(=O)C4CC4)nn23)sc1CN1CCS(=O)(=O)CC1` [EXP-2], the IC50 on JAK1 is 50 to 500 nM; on JAK2, 50 to 500 nM; in the series with Hela cells (OSM stimulation), less than 5 µM; in the series on BaF3 cells it was less than 5 µM; in the series with THP1 cells, less than 5 µM.

For `O=C(Nc1nc2cccc(-c3ccc(CN4CCS(=O)(=O)CC4)s3)n2n1)[C@H]1C[C@@H]1F` [EXP-6], the IC50 on JAK1 was 50 to 500 nM; on JAK2 it was 50 to 500 nM; on JAK3, more than 500 nM; against TYK2, more than 500 nM.

In the case of `O=C(Nc1nc2cccc(-c3ccc(CN4CCS(=O)(=O)CC4)cc3)n2n1)C1CC1` [Filgotinib, reference compound], the IC50 with Hela cells, in the series on BaF3 cells and in the series on THP1 cells was 5 to 30 µM throughout. The same molecule returned an exposure (AUC) in the series “Pharmacokinetic study” of 2850 ng·h/mL. Further, the Cmax in “Pharmacokinetic study” worked out at 426 ng/mL. Moreover, the half-life in “Pharmacokinetic study” was 3.9 h. Besides, the “Foot volume (ml)/Day” value in the series with rat CIA model (day 0) was 2.597 ± 0.014 mL; in the series with rat CIA model (day 8) it was 2.589 ± 0.020 mL; with rat CIA model (day 11), 2.700 ± 0.090 mL; with rat CIA model (day 14), 3.644 ± 0.330 mL; with rat CIA model (day 17), 4.702 ± 0.255 mL; in the series on rat CIA model (day 21), 4.829 mL. The “Foot volume (ml)/Day” value was determined as 4.769 mL with rat CIA model (day 24) and 4.363 mL with rat CIA model (day 28).

The values above are taken from patent publication US20220274983A1, “JAK KINASE INHIBITOR AND USE THEREOF” (JIANGSU CAREPHAR PHARMACEUTICAL CO., LTD., priority 2019, published 2022).
